From patent US10239887B2, “Positive allosteric modulators of the muscarinic acetylcholine receptor M4” (Vanderbilt University, priority 2016, dated 2019)
Where a name gives a salt, the structure may show the parent alone.

Target: T1, human mAChR M4 (Homo sapiens, UniProt P08173)
T1 sequence (P08173 1-479): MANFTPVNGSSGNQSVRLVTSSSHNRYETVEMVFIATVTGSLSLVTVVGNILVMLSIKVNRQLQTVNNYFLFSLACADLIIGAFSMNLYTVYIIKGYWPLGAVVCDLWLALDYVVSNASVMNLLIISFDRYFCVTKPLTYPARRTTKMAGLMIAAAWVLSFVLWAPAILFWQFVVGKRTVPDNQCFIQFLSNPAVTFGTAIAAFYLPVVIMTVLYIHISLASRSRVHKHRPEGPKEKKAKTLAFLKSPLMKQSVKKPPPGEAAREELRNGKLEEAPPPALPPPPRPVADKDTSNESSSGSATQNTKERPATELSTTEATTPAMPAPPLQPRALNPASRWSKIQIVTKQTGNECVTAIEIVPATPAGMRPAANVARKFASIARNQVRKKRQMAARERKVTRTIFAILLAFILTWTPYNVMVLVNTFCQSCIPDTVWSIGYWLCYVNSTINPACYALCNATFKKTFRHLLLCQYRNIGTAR
Test: mAChR M4 cell-based functional assay (calcium flux), human M4
Settings: for Emax: % ACh maximum at 30 μM

[1] = Human M4 EC50 (nM), Table 10, calcium flux, PAM activity with EC20 acetylcholine
[2] = Human M4 EC50, CHO-K1 hM4-Gqi5 cells, calcium flux, increase in EC20 acetylcholine response
[3] = Human M4 EC50 (nM), Table 11, calcium flux, PAM activity with EC20 acetylcholine

EC50 [1] [nM] | Emax (Table 10) [%] | further results | SMILES
154 | 87.6 |  | CNC(=O)c1cc(CNc2ncnc3c2sc2nnc(C)c(C)c23)ccc1F [Compound 187, 5-[[(3,4-dimethylpyrimido [4′,5′:4,5]thieno[2,3-c]pyridazin-8-yl)amino]methyl]-2-fluoro-N-methyl-benzamide]
5270 | 67.3 |  | Cc1nnc2sc3c(NCc4ccc(S(F)(F)(F)(F)F)cc4)ncnc3c2c1C [Compound 92, 3,4-dimethyl-N-[[4-(pentafluoro-λ6-sulfanyl)phenyl]methyl]pyrimido [4′,5′:4,5]thieno[2,3-c] pyridazin-8-amine]
 |  | Emax (Human M4): 57.9%; EC50 [2]: 1750 nM | Cc1nnc2oc3c(NC4CC(F)(F)C4)ncnc3c2c1C [Compound 72, N-(3,3-difluorocyclobutyl)-3,4-dimethyl-pyrimido [4′,5′:4,5]furo[2,3-c]pyridazin-8-amine]
2390 | 50.1 |  | Cc1nnc2sc3c(N4CC(C)(N)C4)ncnc3c2c1C [Compound 98, 1-(3,4-dimethylpyrimido [4′,5′:4,5]thieno[2,3-c]pyridazin-8-yl)-3-methyl-azetidin-3-amine dihydrochloride]
1160 | 96.5 |  | Cc1nnc2sc3c(NCc4ccc(F)c(C(=O)NC5CC5(C)C)c4)ncnc3c2c1C (stereo not drawn) [Compound 181, N-(2,2-dimethylcyclopropyl)-5-[[(3,4-dimethylpyrimido [4′,5′:4,5]thieno[2,3-c]pyridazin-8-yl)amino]methyl]-2-fluoro-benzamide]
3500 | 22.7 |  | Cc1nnc2sc3c(NC4CC5(C4)CN(c4ncc(Cl)cc4F)C5)ncnc3c2c1C [Compound 164, N-[2-(5-chloro-3-fluoro-2-pyridyl)-2-azaspiro [3.3]heptan-6-yl]-3,4-dimethyl-pyrimido [4′,5′:4,5]thieno[2,3-c] pyridazin-8-amine]
818 | 45.9 |  | Cc1nnc2oc3c(NC4CCCC4)ncnc3c2c1C [Compound 304, N-cyclopentyl-3,4-dimethyl-pyrimido [4′,5′:4,5]furo[2,3-c]pyridazin-8-amine]
 |  | EC50 [3]: 444 nM; Emax (Table 11): 62.1% | Cc1cc(C)c(OC2CN(c3ncnc4c3sc3nnc(C)c(C)c34)C2)cn1 [Compound 351, 8-[3-[(4,6-dimethyl-3-pyridyl)oxy]azetidin-1-yl]-3,4-dimethyl-pyrimido[4′,5′:4,5]thieno [2,3-c]pyridazine dihydrochloride]
3120 | 62.6 |  | Cc1nnc2sc3c(NC4CCN(c5cccc(F)c5F)C4)ncnc3c2c1C (stereo not drawn) [Compound 81, N-[1-(2,3-difluorophenyl)pyrrolidin-3-yl]-3,4-dimethyl-pyrimido [4′,5′:4,5]thieno[2,3-c] pyridazin-8-amine]
 | 45.3 | EC50 (Human M4 EC50 (nM), Table 10, unit μM (bounds)): > 10000 nM | Cc1nc2sc3c(NCc4ccc(C5(O)CCC5)cc4)ncnc3c2c(C)c1Cl [Compound 276, 1-[4-[[(8-chloro-7,9-dimethyl-pyrido [3′,2′:4,5]thieno[3,2-d]pyrimidin-4-yl)amino]methyl]phenyl]cyclobutanol]
941 | 98.4 |  | Cc1nnc2sc3c(NC4CC4c4ccc(F)c(F)c4)ncnc3c2c1C (stereo not drawn) [Compound 119, N-[2-(3,4-difluorophenyl)cyclopropyl]-3,4-dimethyl-pyrimido [4′,5′:4,5]thieno[2,3-c] pyridazin-8-amine]
 |  | EC50 [3]: 362 nM; Emax (Table 11): 53% | Cc1nnc2sc3c(N4CC[C@H](C(C)(C)O)C4)ncnc3c2c1C [Compound 354, 2-[(3S)-1-(3,4-dimethylpyrimido[4′,5′:4,5]thieno[2,3-c]pyridazin-8-yl)pyrrolidin-3-yl]propan-2-ol]
 |  | EC50 [3]: 210 nM; Emax (Table 11): 81.2% | Cc1nnc2sc3c(N4CC(Oc5ccnc(Cl)c5)C4)ncnc3c2c1C [Compound 349, 8-[3-[(2-chloro-4-pyridyl)oxy]azetidin-1-yl]-3,4-dimethyl-pyrimido[4′,5′:4,5] thieno[2,3-c]pyridazine dihydrochloride]
59.4 | 73 |  | Cc1nnc2oc3c(NC4CN(c5ccc(F)c(F)c5)C4)ncnc3c2c1C [Compound 297, N-[1-(3,4-difluorophenyl)azetidin-3-yl]-3,4-dimethyl-pyrimido[4′,5′:4,5]furo [2,3-c]pyridazin-8-amine]
 |  | Emax (Human M4): 61.8%; EC50 [2]: 110 nM | Cc1nc2oc3c(NCc4ccc(C(C)(C)O)cc4)ncnc3c2c(C)c1Cl [Compound 39, 2-[4-[[(8-chloro-7,9-dimethyl-pyrido[3′,2′:4,5]furo[3,2-d]pyrimidin-4-yl)amino]methyl]phenyl] propan-2-ol]
2320 | 70.5 |  | Cc1nc2sc3c(NCc4cccc(C5(O)CCC5)c4)ncnc3c2c(C)c1Cl [Compound 277, 1-[3-[[(8-chloro-7,9-dimethyl-pyrido [3′,2′:4,5]thieno[3,2-d]pyrimidin-4-yl)amino]methyl]phenyl]cyclobutanol]
 |  | EC50 [3]: 850 nM; Emax (Table 11): 72.2% | CCn1nccc1-c1ccc(CNc2ncnc3c2sc2nnc(C)c(C)c23)cc1 [Compound 343, N-[[4-(2-ethylpyrazol-3-yl)phenyl]methyl]-3,4-dimethyl-pyrimido [4′,5′:4,5]thieno[2,3-c] pyridazin-8-amine]
127 | 69.4 |  | Cc1nnc2sc3c(NCc4ccc(C5(O)CCC5)cc4)ncnc3c2c1C [Compound 114, 1-[4-[[(3,4-dimethylpyrimido [4′,5′:4,5]thieno[2,3-c]pyridazin-8-yl)amino]methyl]phenyl]cyclobutanol]
 |  | Emax (Human M4): 66.5%; EC50 [2]: 1310 nM | Cc1nnc2oc3c(NC4CC4)ncnc3c2c1C [Compound 68, N-cyclopropyl-3,4-dimethyl-pyrimido [4′,5′:4,5]furo[2,3-c]pyridazin-8-amine]
1840 | 59.5 |  | Cc1nc2sc3c(NCC4CCOC4)ncnc3c2c(C)c1Cl (stereo not drawn) [Compound 273, 8-chloro-7,9-dimethyl-N-(tetrahydrofuran-3-ylmethyl) pyrido[3′,2′:4,5]thieno [3,2-d]pyrimidin-4-amine dihydrochloride]
469 | 91.8 |  | Cc1nnc2sc3c(NCc4ccc(C(=O)N5CCC(F)(F)C5)cc4)ncnc3c2c1C [Compound 134, (3,3-difluoropyrrolidin-1-yl)-[4-[[(3,4-dimethylpyrimido [4′,5′:4,5]thieno[2,3-c]pyridazin-8-yl)amino]methyl]phenyl]methanone]
102 | 57.6 |  | Cc1c(Cl)cnc2sc3c(N4CC(c5ccncc5)C4)ncnc3c12 [Compound 224, 8-chloro-9-methyl-4-[3-(4-pyridyl)azetidin-1-yl]pyrido [3′,2′:4,5]thieno[3,2-d] pyrimidine]
590 | 66.4 |  | Cc1nnc2sc3c(N4CC(Nc5ncccc5C#N)C4)ncnc3c2c1C [Compound 141, 2-((1-(3,4-dimethylpyrimido [4′,5′:4,5]thieno[2,3-c]pyridazin-8-yl)azetidin-3-yl)amino) nicotinonitrile 2,2,2-trifluoroacetate]
380 | 84.8 |  | Cc1nnc2sc3c(NCc4ccc(C(=O)NC5CCCCC5)cc4)ncnc3c2c1C [Compound 159, N-cyclohexyl-4-[[(3,4-dimethylpyrimido [4′,5′:4,5]thieno[2,3-c]pyridazin-8-yl)amino]methyl]benzamide]
